Reference: PMC11096368, “Transcriptomic signature, bioactivity and safety of a non-hepatotoxic analgesic generating AM404 in the midbrain PAG region” (Scientific Reports, 2024)
Entries after “also recorded” stand apart in the source; their conditions may differ. Like-named read-outs stand apart in the source and are kept apart here.

Experiments:
[1] = Phase 1 multiple ascending dose (MAD) pharmacokinetics; assay type: in vivo, human; conditions: for half-life: human, plasma, oral
Experimental: A randomized, double-blind, placebo-controlled Phase 1 trial (ClinicalTrials.gov identifier: NCT05484414) (02/08/2022) was conducted to assess the safety, tolerability, food effect, pharmacokinetics (PK), and pharmacodynamics (PD) of single and multiple ascending doses of SRP-001 (Quotient Sciences, Miami FL USA; Fig. 3h - k and Methods). The trial was conducted in accordance with the International Council for Harmonisation of Technical Requirements for Pharmaceuticals for Human Use (ICH), Guideline for GCP: Consolidated Guidance (E6), attained Institutional Review Board approval, and all applicable regulatory requirements for Phase 1, First in Human clinical trials. Safety measurements and plasma samples to determine PK parameters were collected throughout the study for all subjects and reviewed by the Safety Review Committee. PK stopping criteria were established to assure that systemic exposure to SRP-001 was less than or equal to the systemic exposure achieved at the NOAEL doses in the 28-day repeat-dose toxicology studies in the rat and dog. The trial’s Safety Advisory Committee has approved the publication of the Phase 1 results.
SRP-001 was administered as an oral nanosuspension to 56 healthy volunteers across five Single Ascending Dose (SAD) and two Multiple Ascending Dose (MAD) cohorts, with 42 subjects receiving SRP-001 and 14 receiving a placebo.
A two-part randomized, double-blind, placebo-controlled Phase 1 trial was conducted to assess the safety, tolerability, PK and PD of SRP-001 ascending doses (Quotient Sciences, Miami, FL, USA). The study was conducted in accordance with the International Council for Harmonisation of Technical Requirements for Pharmaceuticals for Human Use (ICH), Guideline for GCP: Consolidated Guidance (E6), and applicable regulatory requirements(s) including clinical research guidelines established by the Basic Principles defined in the U.S. 21 CFR Parts 50, 56, and 312 and the principles enunciated in the Declaration of Helsinki (revised version Fortaleza 2013). The clinical protocol and informed consent form were reviewed and approved by an Institutional Review Board (IRB; Advarra IRB, 6100 Merriweather Drive, Suite 600, Columbia, MD 21,044; Quotient Protocol No. SRP-101 and Quotient Sciences Study No. QSC205130; Quotient Sciences Miami, 3898 NW 7th Street, Miami, FL 33,126.). The study comprises a SAD (Part 1) assessment that includes a food effect assessment that contributes data to inform a subsequent MAD (Part 2) dose-ranging study. Safety measurements were collected throughout the study for all subjects. Blood samples were collected to determine the PK parameters of SRP-001 (ClinicalTrials.gov identifier: NCT05484414) (02/08/2022).

male Sprague–Dawley rats = experiment: Pulmonary function evaluation in conscious rats (GLP); assay type: in vivo; conditions: oral, 220, 440, 660 mg/kg
Experimental: The potential effects of orally administered SRP-001 on respiratory rate, tidal volume, and minute volume in conscious male Sprague–Dawley rats was studied in 24 male rats. The rodents were trained for two days in the head-out plethysmograph chamber for 15–17 min each prior to the experiment. On the day of dosing, each animal was weighed and placed in the plethysmograph chamber, and baseline respiratory parameters were obtained for 5 min following an approximately 5-min stabilization period. The rats were then removed from the chamber and dosed by oral gavage. Three groups of six male Sprague–Dawley rats each were orally administered SRP-001 at a single dose of 220, 440, or 660 mg/kg at a dose volume of 10 mL/kg. […] Following dosing, each animal was returned to its designated plethysmograph chamber, and the respiratory parameters were recorded at 30 min (± 5 min), 2, 4, and 6 h (± 15 min). Animals were allowed to stabilize in the plethysmograph chamber for at least 5 min before each reading was taken. The following parameters were acquired, recorded, and analyzed using Ponemah Physiology Platform (Ponemah v.5.20 Pulmonary); Respiratory rate, Tidal Volume, and Minute Volume, Values for the test article treated group were compared to the vehicle control values using a two-way repeated measures ANOVA followed by a Bonferroni Multiple Comparison Test (SigmaStat, v. 4.0). […]

beagle dogs = experiment: Two-day oral dose toxicity and pharmacokinetic study (non-GLP); assay type: in vivo
Experimental: SRP-001 was supplied by Olon Ricerca Bioscience as an off-white powder and then prepared as dosing suspensions for oral administration via gavage (Calvert Labs/Altasciences, Scott Township, PA USA). Six experimentally non-naïve male Beagle dogs (3/dose), at least 7 months old and weighing 7.2 to 10.2 kg prior to treatment initiation, were administered 100 or 900 mg/kg/d SRP-001. Animals were dosed three times daily (3–5 h between doses) for 2 d. Mortality/morbidity was performed twice daily. On the day of dosing, animals were observed prior to each dose administration and approximately 1–3 h after each dose. Animals were also observed once on day 3. Body weights were recorded for all animals prior to the first dose administration on days 1 and 3, and food consumption was recorded daily. Blood for bioanalytical evaluation was collected at selected timepoints on day 1. Following the completion of the study, surviving animals were not euthanized and were returned to the Calvert colony. […]
Following a single administration of 900 mg SRP-001 oral suspension in the fed state, plasma concentrations of SRP-001 were observed from the first sampling time-point of 1 h post-dose for all subjects. […] In a two-day oral dose toxicity and pharmacokinetic (PK) study of […] in Beagle dogs, peak plasma concentrations of SRP-001 were detected within a 30-min to 1-h window post-administration. […]

dog = experiment: Maximum tolerated dose study, single dose (non-GLP); assay type: in vivo
Experimental: To determine the appropriate doses, maximum tolerated dose studies (non-GLP) were conducted prior to the definitive GLP systemic toxicity studies. SRP-001 was evaluated by a full battery of GLP-compliant toxicity studies. Systemic toxicity was evaluated in Sprague–Dawley rats and Beagle dogs by oral administration over 28 days (Supplementary Fig. 19 and Supplementary Table 2). Importantly, no treatment-related adverse effects were seen during 28 days of daily oral doses of SRP-001 in rats at doses up to 1500 mg/kg/day or in dogs at doses up to 330 mg/kg/day.

CCN(CC)C(=O)c1ccccc1S(=O)(=O)NCC(=O)Nc1ccc(O)cc1 [SRP-001, N,N-diethyl-2-[[2-(4-hydroxyanilino)-2-oxo-ethyl]sulfamoyl]benzamide]
PK parameters on Day 5 versus Day 1 ([1]; Phase 1 MAD cohort): decrease | half-life ([1]; 500 mg, MAD, 500 mg dose, Day 1, read-out: Geometric mean T1/2 (converted)): 3.06 h | half-life ([1]; 500 mg, MAD, 500 mg dose, Day 5, read-out: Geometric mean T1/2 (converted)): 4.92 h | half-life ([1]; 1000 mg, MAD, 1,000 mg dose, Day 1, read-out: Geometric mean T1/2 (converted)): 4.05 h | half-life ([1]; 1000 mg, MAD, 1,000 mg dose, Day 5, read-out: Geometric mean T1/2 (converted)): 9.77 h | half-life ([1]; MAD cohorts, read-out: Arithmetic mean T1/2 (converted)): 5.57 h | half-life ([1]; Phase 1 trial, read-out: Half-life): 4.9 to 9.8 h | Respiratory findings (respiratory rate, tidal volume, minute volume) (male Sprague–Dawley rats): did not induce any significant effects; also recorded: No significant findings | Dose tolerated (beagle dogs; 3 times daily for 2 days): 900 mg/kg/day | Time of peak plasma concentrations post-administration (beagle dogs; dog, in vivo): 30-min to 1-h | Single doses that did not result in any mortality (dog): ≤ 1200 mg/kg
